Values after ≈ are worked out from the molar mass of the structure shown.
What was measured:
[1] = test system: colorectal carcinoma HTC-116 cell line; test: MTT growth inhibition, HTC-116 (HCT 116); format: cell-based; settings: for IC50: Homo sapiens, HCT-116, MTT test, 96-well plate, serial dilution, spread in brackets; for growth inhibition of third cell line (HCT): result in words
Procedure: (§1) Growth inhibitions were measured in 96-well plates. Aliquots of 120 μL of the suspended cells (50,000 mL^−1) were given to 60 μL of a serial dilution of the inhibitor (S). After 5 days of incubations, growths were determined the MTT assay (MTT=3-(4,5-dimethylthiazol-2-yl)-2,5-diphenyltetrazolium bromide). Briefly, 20 μl MTT (5 mg/mL in PBS) were added to each well, and the plates were incubated for 2 h at 37° C., and 5% CO2-atmosphere in the cell incubator. The supernatants were then discarded and 200 μl of isopropanol/HCl were added to each well and mixed to dissolve the formazan crystals. The absorbance was then read at 550 nm using a microplate reader (Thermo Scientific, USA). The viability of the cells was calculated by dividing the absorbance average of the treated cells by the absorbance average of the control cells multiply 100%. […] The activities of the cells were plotted against the concentration of the drugs, and the IC50 values were calculated from the regression curve.
The cancer cell lines were incubated with serial dilution of each compound (from 313 pg ML^−1 to 5 mg ML^−1) in a 96-well plate for 4 days, and then tested for growth inhibition by MTT-Test. […] Replacing the formyl groups of the two compounds with amino groups (Sub. 6 and Sub. 7) caused remarkable decreasing of cells sensitivities, and accordingly increasing of IC50 values of the two derivatives as shown in table 2. […] Moreover, the sensitivities of the treated cancer cells to 4 and 5 were 6 times higher in case of the […] cell line A459, and even 40 times higher in case of hepatocyte carcinoma cell line HepG2.

[2] = test system: hepatocellular carcinoma HepG2 cell line; test: MTT growth inhibition, HepG2; format: cell-based; settings: for IC50: Homo sapiens, MTT test, 96-well plate, serial dilution, spread in brackets; for sensitivity of treated cancer cells, times higher: comparator not stated
Procedure: as §1
(§2) The cancer cell lines were incubated with serial dilution of each compound (from 313 pg ML^−1 to 5 mg ML^−1) in a 96-well plate for 4 days, and then tested for growth inhibition by MTT-Test.

[3] = test system: lung carcinoma cell line A549; test: MTT growth inhibition, A549; format: cell-based; settings: for IC50: Homo sapiens, A549, MTT test, 96-well plate, serial dilution, spread in brackets; for sensitivity of treated cancer cells, times higher: cell line printed as A459, comparator not stated
Procedure: as §1, §2

[4] = test system: Burkitts Lymphoma (BL) cell lines DG-75; settings: does not involve caspases, DNA fragmentation or PARP cleavage; cited from earlier work

Row | Structure (SMILES) | IC50 [1] | growth inhibition of third cell line (HCT) [1] | IC50 [2] | sensitivity of treated cancer cells, times higher [2] | IC50 [3] | sensitivity of treated cancer cells, times higher [3] | melting point | in vitro antiproliferative activity against DG-75 [4]
1 | O=CC1CC2c3cccc(Cl)c3C1c1c(Cl)cccc12 (stereo not shown) [Compound 4, 4,5-dichloro-9,10-dihydro-9,10-ethanoanthracene-11-carbaldehyde] | 0.4 µg/mL (≈ 1.32 µM) | able to inhibit the growth | 0.12 µg/mL (≈ 0.396 µM) | 40 times | 1.1 µg/mL (≈ 3.63 µM) | 6 times | – | –
2 | O=CC1CC2c3c(Cl)cccc3C1c1cccc(Cl)c12 (stereo not shown) [Compound 5, 1,8-dichloro-9,10-dihydro-9,10-ethanoanthracene-11-carbaldehyde] | 0.7 µg/mL (≈ 2.31 µM) | able to inhibit the growth | 0.65 µg/mL (≈ 2.14 µM) | 40 times | 3.71 µg/mL (≈ 12.2 µM) | 6 times | – | –
3 | CNCC1CC2c3cccc(Cl)c3C1c1c(Cl)cccc12 (stereo not shown) [Compound 6, 1-(4,5-dichloro-9,10-dihydro-9,10-ethanoanthracen-11-yl)-N-methylmethanamine] | – | – | 12.7 µg/mL (≈ 39.8 µM) | – | 25.5 µg/mL (≈ 80.1 µM) | – | 290 °C | –
4 | CNCC1CC2c3c(Cl)cccc3C1c1cccc(Cl)c12 (stereo not shown) [Compound 7, 1-(1,8-dichloro-9,10-dihydro-9,10-ethanoanthracen-11-yl)-N-methylmethanamine] | – | – | 13.8 µg/mL (≈ 43.4 µM) | – | 18.9 µg/mL (≈ 59.4 µM) | – | 310 °C | –
5 | CNCCCC12CCC(c3ccccc31)c1ccccc12 [Maprotiline, 9,10-dihydro-N-methyl-9,10-ethanoanthracene-9-propanamine] | – | – | – | – | – | – | – | antiproliferative agent

From patent publication US9498460B1, “Halogenated tetracyclic compounds” (KING SAUD UNIVERSITY, priority 2016, dated 2016)
